Values of other authors as cited in US20240174947A1, “SURFACTANT COMPOSITIONS” (LANKEM LTD., priority 2021, published 2024).

Test system: reconstructed human epidermis (RhE)
Conditions: for ET50: typical reference ET50 irritancy results for commonly used anionic and amphoteric surfactants; for Classification (expected in vivo irritancy): typical reference results for commonly used anionic and amphoteric surfactants, assigned from ET50

Molecule	ET50	Classification (expected in vivo irritancy)
CCCCCCCCCCCCOS(=O)(=O)[O-].[Na+] [Sodium lauryl sulfate]	9.37 h	Moderate to mild (4-12)
Sodium laureth sulfate	10.25 h	Moderate to mild (4-12)
Cocamidopropyl betaine	29.4 h	Non-irritating (>24)
